This is an account of results in ChEMBL document CHEMBL3124777, “Synthesis and biological evaluation of thiazoline derivatives as new antimicrobial and anticancer agents” (Eur J Med Chem, 2014).

Values after ≈ are worked out from the molar mass of the structure shown.

The test system of the first test is Candida albicans. The test can be described thus: Antimicrobial activity against Candida albicans ATCC 22019 after 18 to 24 hrs by microbroth dilution method. The test is classed as functional.
Conditions: not given
In general, MIC refers to the lowest concentration that inhibits growth of the organism. Lower therefore signals greater potency. The compound `COc1ccc(-c2cs/c(=N/NC(=O)CSc3ncccn3)n2-c2ccccc2)cc1` registered an MIC of 250 µg/mL (≈ 556 µM).

`Cn1cnnc1SCC(=O)N/N=c1/scc(-c2ccccc2)n1-c1ccccc1` came in with a minimum inhibitory concentration (MIC) of 250 µg/mL (≈ 592 µM).

A further test deals with C6. The test can be described thus: Cytotoxicity against rat C6 cells assessed as cell viability at 100 ug/ml after 24 hrs by MTT assay relative to control. The test is classed as functional. The note with it: C6, 24 h, read-out: Activity. A general note: Tetrazolium dyes change colour on reduction, which living cells bring about.
With `COc1ccc(-c2cs/c(=N/NC(=O)CSc3ncccn3)n2-c2ccccc2)cc1`, the viability at 100 µg/mL came to 51.5%.

For the compound `Cn1cnnc1SCC(=O)N/N=c1/scc(-c2ccccc2)n1-c1ccccc1`, the viability at 100 µg/mL came out at 38.6%.

Another test concerns Micrococcus luteus. The test can be described thus: Antimicrobial activity against Micrococcus luteus NRLL B-4375 after 18 to 24 hrs by microbroth dilution method. The test is classed as functional.
Conditions: not given
Turning to `COc1ccc(-c2cs/c(=N/NC(=O)CSc3ncccn3)n2-c2ccccc2)cc1`, the MIC came to 250 µg/mL (≈ 556 µM).

As to `Cn1cnnc1SCC(=O)N/N=c1/scc(-c2ccccc2)n1-c1ccccc1`, the MIC was 250 µg/mL (≈ 592 µM).

The next test deals with Fusarium verticillioides. The test can be described thus: Antimicrobial activity against Fusarium moniliforme NRRL 1866 after 48 to 72 hrs by microbroth dilution method. The test is classed as functional.
Conditions: not given
(In general: Dilution methods test growth across graded concentrations, often in twofold steps.)
Compound `COc1ccc(-c2cs/c(=N/NC(=O)CSc3ncccn3)n2-c2ccccc2)cc1` displayed an MIC of 250 µg/mL (≈ 556 µM).

Compound `Cn1cnnc1SCC(=O)N/N=c1/scc(-c2ccccc2)n1-c1ccccc1` displayed an MIC of 250 µg/mL (≈ 592 µM).

The subject of a further test is Aspergillus ochraceus. The test can be described thus: Antimicrobial activity against Aspergillus ochraceus NRRL 3174 after 48 to 72 hrs by microbroth dilution method. The test is classed as functional.
Conditions: not given
With `COc1ccc(-c2cs/c(=N/NC(=O)CSc3ncccn3)n2-c2ccccc2)cc1`, it took 250 µg/mL (≈ 556 µM) to inhibit growth (MIC).

As for `Cn1cnnc1SCC(=O)N/N=c1/scc(-c2ccccc2)n1-c1ccccc1`, the MIC worked out at 250 µg/mL (≈ 592 µM).

For another test, the system named is NIH3T3. The test can be described thus: Cytotoxicity against mouse NIH/3T3 cells after 24 hrs by MTT assay. The test is classed as cell-based. The note with it: NIH3T3, 24 h.
What is called IC50 is the concentration that gives 50% inhibition. Lower therefore signals greater potency. For `COc1ccc(-c2cs/c(=N/NC(=O)CSc3ncccn3)n2-c2ccccc2)cc1`, the IC50 turned out to be 450 µg/mL (≈ 1000 µM).

In turn, `Cn1cnnc1SCC(=O)N/N=c1/scc(-c2ccccc2)n1-c1ccccc1` registered an IC50 of 217 µg/mL (≈ 513 µM).

Another test relates to C6. The test can be described thus: Cytotoxicity against rat C6 cells assessed as cell viability at 200 ug/ml after 24 hrs by MTT assay relative to control. The test is classed as functional. Conditions: C6, 24 h, read-out: Activity.
Consider `COc1ccc(-c2cs/c(=N/NC(=O)CSc3ncccn3)n2-c2ccccc2)cc1`, for which the viability at 200 µg/mL came to 37.6%.

With `Cn1cnnc1SCC(=O)N/N=c1/scc(-c2ccccc2)n1-c1ccccc1`, the viability at 200 µg/mL was found to be 35.5%.

Another test deals with Trichoderma harzianum. The test can be described thus: Antimicrobial activity against Trichoderma harzianum NRRL 20565 after 48 to 72 hrs by microbroth dilution method. The test is classed as functional.
Conditions: not given
`COc1ccc(-c2cs/c(=N/NC(=O)CSc3ncccn3)n2-c2ccccc2)cc1`: the MIC came to 250 µg/mL (≈ 556 µM).

The compound `Cn1cnnc1SCC(=O)N/N=c1/scc(-c2ccccc2)n1-c1ccccc1` yielded an MIC of 125 µg/mL (≈ 296 µM).

A further test deals with Listeria monocytogenes. The test can be described thus: Antimicrobial activity against Listeria monocytogenes ATCC 7644 after 18 to 24 hrs by microbroth dilution method. The test is classed as functional.
Conditions: not given
`COc1ccc(-c2cs/c(=N/NC(=O)CSc3ncccn3)n2-c2ccccc2)cc1` yielded an MIC of 250 µg/mL (≈ 556 µM).

`Cn1cnnc1SCC(=O)N/N=c1/scc(-c2ccccc2)n1-c1ccccc1` displayed an MIC of 250 µg/mL (≈ 592 µM).

The next test has as its system C6. The test can be described thus: Cytotoxicity against rat C6 cells after 24 hrs by MTT assay. The test is classed as functional, cell-based. Conditions: C6, 24 h.
Take `COc1ccc(-c2cs/c(=N/NC(=O)CSc3ncccn3)n2-c2ccccc2)cc1`: the IC50 is 102 µg/mL (≈ 226 µM).

As for `Cn1cnnc1SCC(=O)N/N=c1/scc(-c2ccccc2)n1-c1ccccc1`, half-maximal inhibition (IC50) required 68.3 µg/mL (≈ 162 µM).

A further test concerns Penicillium chrysogenum. The test can be described thus: Antimicrobial activity against Penicillium chrysogenum NRRL 1951 after 48 to 72 hrs by microbroth dilution method. The test is classed as functional.
Conditions: not given
Compound `COc1ccc(-c2cs/c(=N/NC(=O)CSc3ncccn3)n2-c2ccccc2)cc1` returned an MIC of 250 µg/mL (≈ 556 µM).

On to `Cn1cnnc1SCC(=O)N/N=c1/scc(-c2ccccc2)n1-c1ccccc1`, for which the MIC was determined as 250 µg/mL (≈ 592 µM).

The test system of the next test is Aspergillus parasiticus. The test can be described thus: Antimicrobial activity against Aspergillus parasiticus NRRL 465 after 48 to 72 hrs by microbroth dilution method. The test is classed as functional.
Conditions: not given
`COc1ccc(-c2cs/c(=N/NC(=O)CSc3ncccn3)n2-c2ccccc2)cc1`: the MIC came to 250 µg/mL (≈ 556 µM).

In the case of `Cn1cnnc1SCC(=O)N/N=c1/scc(-c2ccccc2)n1-c1ccccc1`, the MIC came to 250 µg/mL (≈ 592 µM).

The subject of the next test is Bacillus subtilis. The test can be described thus: Antimicrobial activity against Bacillus subtilis NRS-744 after 18 to 24 hrs by microbroth dilution method. The test is classed as functional.
Conditions: not given
`COc1ccc(-c2cs/c(=N/NC(=O)CSc3ncccn3)n2-c2ccccc2)cc1` returned a minimal inhibitory concentration (MIC) of 250 µg/mL (≈ 556 µM).

Regarding `Cn1cnnc1SCC(=O)N/N=c1/scc(-c2ccccc2)n1-c1ccccc1`, the MIC stood at 250 µg/mL (≈ 592 µM).

The subject of a further test is C6. The test can be described thus: Cytotoxicity against rat C6 cells assessed as cell viability at 6 ug/ml after 24 hrs by MTT assay relative to control. The test is classed as functional. Conditions: C6, 24 h, read-out: Activity.
In the case of `COc1ccc(-c2cs/c(=N/NC(=O)CSc3ncccn3)n2-c2ccccc2)cc1`, the viability at 6 µg/mL turned out to be 89.6%.

As for `Cn1cnnc1SCC(=O)N/N=c1/scc(-c2ccccc2)n1-c1ccccc1`, the viability at 6 µg/mL came to 90%.

A further test concerns C6. The test can be described thus: Cytotoxicity against rat C6 cells assessed as cell viability at 12 ug/ml after 24 hrs by MTT assay relative to control. The test is classed as functional. Conditions: C6, 24 h, read-out: Activity.
On to `COc1ccc(-c2cs/c(=N/NC(=O)CSc3ncccn3)n2-c2ccccc2)cc1`, for which the viability at 12 µg/mL was 78.4%.

Take `Cn1cnnc1SCC(=O)N/N=c1/scc(-c2ccccc2)n1-c1ccccc1`: the viability at 12 µg/mL came out at 79.6%.

Another test deals with Staphylococcus aureus. The test can be described thus: Antimicrobial activity against Staphylococcus aureus NRRL B-767 after 18 to 24 hrs by microbroth dilution method. The test is classed as functional.
Conditions: not given
As to `COc1ccc(-c2cs/c(=N/NC(=O)CSc3ncccn3)n2-c2ccccc2)cc1`, the MIC is 250 µg/mL (≈ 556 µM).

Consider `Cn1cnnc1SCC(=O)N/N=c1/scc(-c2ccccc2)n1-c1ccccc1`, for which it took 250 µg/mL (≈ 592 µM) to inhibit growth (MIC).

In the next test the test system is C6. The test can be described thus: Cytotoxicity against rat C6 cells assessed as cell viability at 25 ug/ml after 24 hrs by MTT assay relative to control. The test is classed as functional. The note with it: C6, 24 h, read-out: Activity.
Consider `COc1ccc(-c2cs/c(=N/NC(=O)CSc3ncccn3)n2-c2ccccc2)cc1`, for which the viability at 25 µg/mL came out at 74%.

On to `Cn1cnnc1SCC(=O)N/N=c1/scc(-c2ccccc2)n1-c1ccccc1`, for which the viability at 25 µg/mL amounted to 77.3%.

The next test relates to Fusarium solani. The test can be described thus: Antimicrobial activity against Fusarium solani NRRL 13414 after 48 to 72 hrs by microbroth dilution method. The test is classed as functional.
Conditions: not given
As to `COc1ccc(-c2cs/c(=N/NC(=O)CSc3ncccn3)n2-c2ccccc2)cc1`, the MIC was found to be 250 µg/mL (≈ 556 µM).

For `Cn1cnnc1SCC(=O)N/N=c1/scc(-c2ccccc2)n1-c1ccccc1`, inhibition of growth (MIC) required 250 µg/mL (≈ 592 µM).

A further test has as its system Escherichia coli. The test can be described thus: Antimicrobial activity against Escherichia coli ATCC 25922 after 18 to 24 hrs by microbroth dilution method. The test is classed as functional.
Conditions: not given
`COc1ccc(-c2cs/c(=N/NC(=O)CSc3ncccn3)n2-c2ccccc2)cc1` returned a minimal inhibitory concentration (MIC) of 250 µg/mL (≈ 556 µM).

The compound `Cn1cnnc1SCC(=O)N/N=c1/scc(-c2ccccc2)n1-c1ccccc1` had an MIC of 250 µg/mL (≈ 592 µM).

The test system of another test is Fusarium culmorum. The test can be described thus: Antimicrobial activity against wild type Fusarium culmorum after 48 to 72 hrs by microbroth dilution method. The test is classed as functional.
Conditions: not given
Compound `COc1ccc(-c2cs/c(=N/NC(=O)CSc3ncccn3)n2-c2ccccc2)cc1` yielded an MIC of 250 µg/mL (≈ 556 µM).

Consider `Cn1cnnc1SCC(=O)N/N=c1/scc(-c2ccccc2)n1-c1ccccc1`, for which 250 µg/mL (≈ 592 µM) was the least that counted as inhibitory (MIC).

Another test concerns C6. The test can be described thus: Cytotoxicity against rat C6 cells assessed as cell viability at 50 ug/ml after 24 hrs by MTT assay relative to control. The test is classed as functional. Conditions: C6, 24 h, read-out: Activity.
In the case of `COc1ccc(-c2cs/c(=N/NC(=O)CSc3ncccn3)n2-c2ccccc2)cc1`, the viability at 50 µg/mL was determined as 66.5%.

In the case of `Cn1cnnc1SCC(=O)N/N=c1/scc(-c2ccccc2)n1-c1ccccc1`, the viability at 50 µg/mL was 62.4%.

A further test has as its system Pseudomonas aeruginosa. The test can be described thus: Antimicrobial activity against Pseudomonas aeruginosa […] after 18 to 24 hrs by microbroth dilution method.
Conditions: not given
The test is classed as functional.
`COc1ccc(-c2cs/c(=N/NC(=O)CSc3ncccn3)n2-c2ccccc2)cc1` showed an MIC of 250 µg/mL (≈ 556 µM).

Consider `Cn1cnnc1SCC(=O)N/N=c1/scc(-c2ccccc2)n1-c1ccccc1`, for which the MIC is 250 µg/mL (≈ 592 µM).
